Values joined by “and” are separate entries in the source; they are usually repeats but may differ in a detail not shown here. Equal entries are not always repeated.
System: Streptococcus pyogenes UMAA2166 viability, BacTiter-Glo luminescence, 6 h
Experiment: Streptococcus pyogenes growth inhibition counter-screen, dose response, counter-screen for streptokinase expression inhibitor project, luminescence, BacTiter-Glo, strain UMAA2166 (AID 2477);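 active = compounds whose fitted viability EC50 is at most ten times the top tested dose; inconclusive = flat fit with partial activity, or a poor fit; inactive = the rest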

SMILES	EC50 (measured here: retest run 2) [µM]	EC50 (measured here: retest run 3) [µM]	EC50 (measured here: retest run 4) [µM]	EC50
CCCOc1ccc(-c2nc(OC)c3ccccc3n2)cc1	> 500	> 500	> 500	
COc1ccc(Sc2ccc(NC(=O)c3ccccc3Cl)cc2C#N)cc1	> 500	45.4	> 500	> 500 µM (inactive) and 36.7 µM
COc1ccc(S(=O)(=O)c2ccc(NC(=O)c3ccccc3Cl)cc2C#N)cc1	> 500	> 500	> 500	
COc1nc(-c2ccccc2)nc2ccccc12	> 500	> 500	> 500	
COc1cccc(-c2nc(OC(C)C)c3ccccc3n2)c1	> 500	> 500	> 500	
CCCOc1ccc(-c2nc(Oc3ccccc3)c3ccccc3n2)cc1	> 500	> 500	> 500	
Cc1ccc(Sc2ccc(NC(=O)c3ccc(F)cc3)cc2C#N)cc1	> 500	> 500	> 500	
CCCOc1ccc(-c2nc(Oc3ccc(OC)cc3)c3ccccc3n2)cc1	> 500	> 500	> 500	
COc1ccc(Sc2ccc(NC(=O)c3cccc(Cl)c3)cc2C#N)cc1	> 500			
CC(C)Oc1nc(-c2ccc(Cl)cc2)nc2ccccc12	47	> 500	> 500	
COc1ccc(-c2nc(OC)c3ccccc3n2)cc1	> 500	> 500		
N#Cc1cc(NC(=O)c2ccc(Cl)cc2)ccc1Sc1ccccc1	70.5	69.3		

Reference: PubChem BioAssay AID2477 (Broad Institute, 2010)
